Experiments:
[1] = In-vivo pharmacokinetic evaluation (exposure, AUC fold-over Example 1); settings: male CD-1 mice, 10 mg/kg oral gavage in 20% (2-Hydroxypropyl)-β-cyclodextrin, plasma at 0.5, 2 and 6 hours post-dose; AUC expressed as fold-over Example 1
Description: In-vivo exposure of test compounds was determined in 5-6 week old male CD-1 mice. Mice (n=2/compound) received 10 mg/kg of each compound formulated in 20% (2-Hydroxypropyl)-β-cyclodextrin (10 μL/g) by oral gavage. At 0.5 hours, 2 hours, and 6 hours post-dose, blood samples were collected from the submandibular vein using EDTA as an anticoagulant and stored on ice. Plasma samples were obtained by centrifugation at 4° C. and were analyzed immediately or stored at −20° C. until analysis. Compounds were extracted from mouse plasma with acetonitrile and quantified by LC-MS-MS in the negative ion mode using a standard curve.

[2] = Alternate liver microsome metabolic stability assay; format: in vitro ADME, human, monkey, dog, rat, mouse; settings: liver microsomes, 1 μM, at 30 minutes, all species tested
Description: Metabolic Stability. For evaluating the metabolic stability in liver microsomal preparations, two buffers were prepared. Buffer A consisted of 10 mM NADPH and 0.5 mg/mL microsomes in 100 mM of phosphate buffer. Buffer B consisted of 0.5 mg/mL microsomes in 100 mM of phosphate buffer. The reference compound (verapamil) and test compound were prepared as 100 μM DMSO stocks. The source of liver microsomes was as follows: Human (BD Gentest, #452117), monkey (RILD, #LM-SXH-02M), dog (BD, #452601), Rat (BioIVT, #M00001), and mouse (BioIVT, #M00501).
The reaction was started by adding 2.5 μL of 100 μM control compound or test compound solutions to 216.25 μL of prewarmed (37° C.) assay buffer. The final concentration of the control compound and test compounds were 1 μM. […] The reaction was stopped by adding 5 volumes of cold acetonitrile with internal standards (100 nM alprazolam, 200 nM caffeine, and 100 nM tolbutamide). Samples were centrifuged at 3,220 g for 30 minutes. An aliquot of 100 μL of the supernatant was mixed with 100 μL of ultra-pure water and then used for LC-MS/MS analysis.

[3] = biological target: recombinant full-length human hydroxyacid oxidase 1 (HAO1), the equivalents of hGOX (Homo sapiens (Human), UniProt Q9UJM8); test: In-vitro human glycolate oxidase (hGOX) assay (Amplex red fluorescence); format: biochemical; settings: 6 nM recombinant human GO, 85 μM glycolate, 10 min preincubation
Sequence of recombinant full-length human hydroxyacid oxidase 1 (HAO1), the equivalents of hGOX (Q9UJM8 whole entry): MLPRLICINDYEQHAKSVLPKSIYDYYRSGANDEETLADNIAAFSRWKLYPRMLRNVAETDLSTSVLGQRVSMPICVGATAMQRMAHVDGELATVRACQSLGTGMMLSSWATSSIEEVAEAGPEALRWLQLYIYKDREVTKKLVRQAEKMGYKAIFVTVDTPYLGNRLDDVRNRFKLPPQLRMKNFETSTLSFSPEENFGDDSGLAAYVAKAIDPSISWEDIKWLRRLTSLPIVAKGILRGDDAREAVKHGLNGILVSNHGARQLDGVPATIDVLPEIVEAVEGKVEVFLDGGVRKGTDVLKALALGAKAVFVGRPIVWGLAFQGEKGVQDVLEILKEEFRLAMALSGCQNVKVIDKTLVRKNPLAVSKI
Summary of the method: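 Activity was read as Amplex Red fluorescence (560/590 nm), with 50 μM reagent added after a 10 min room-temperature incubation. The enzyme, full-length human HAO1, was in pH 7.4 HEPES buffer containing KCl, NaCl, MgCl2 and 0.01% Triton X-100.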

[4] = Alternate plasma stability assay; format: in vitro ADME, human, dog, mouse; settings: 5 μM
Description: Plasma stability. Stock compounds were prepared for testing the stability in human (BioIVT, #BRH1589665), dog (BioIVT, #BGL102122) and mouse (BioIVT, #MSE37887) plasma. 1 mM test compound working solution was prepared in DMSO. A one mM propantheline working solution was prepared in acetonitrile. Propantheline was used as a positive control for human, dog, and mouse plasma in this assay.
Plasma (398 μL) for each compound was added into an incubation plate, and the plate was pre-warmed for 15 minutes at 37° C. The reaction was initiated upon addition of 2 μL of 1 mM working solution (test compounds or control compound) to the plasma to reach a final concentration of 5 μM. The reaction was incubated at 37° C. Aliquots of 50 μL were taken from the reaction samples at 0 and 60 minutes. Adding 450 μL cold acetonitrile containing internal standards stopped the reaction. Once the reaction was stopped, the samples were vortexed for 10 minutes, followed by centrifugation at 3,220 g for 40 minutes to precipitate proteins. The supernatant (100 μL) was transferred to a new plate and diluted with ultrapure water according to the LC-MS signal response and peak shape. Samples were analyzed by LC-MS/MS.

Caco-2 cell monolayers = test: Alternate Caco-2 permeability assay; format: in vitro ADME; settings: alternate Caco-2 assay, 10 μM, 2 hours
Description: A working solution for the Caco-2 permeability assay was prepared by diluting test compound stock solutions (2 mM in DMSO) with HBSS (10 mM, pH 7.4) to 10 μM working solution. Metoprolol, erythromycin, and cimetidine were used as the control compounds.
To determine the rate of drug transport in the apical-to-basolateral direction (A-B), 125 μL of the working solution was added to the Transwell insert (apical compartment). 50 μL of each sample was immediately transferred from the apical compartment to 200 μL of acetonitrile containing internal standards (100 nM alprazolam, 200 nM caffeine, and 100 nM tolbutamide) in a new 96-well plate as the initial donor sample (A-B). Samples were vortexed at 1000 rpm for 10 minutes, and the wells in the receiver plate (basolateral compartment) were subsequently filled with 235 μL of transport buffer. Plates were incubated at 37° C. for 2 hours.
To determine the rate of drug transport in the basolateral-to-apical direction (B-A), 285 μL of the working solution was added to the receiver plate wells (basolateral compartment). 50 μL of each sample was transferred immediately from the basolateral compartment to 200 μL of acetonitrile containing internal standards (100 nM alprazolam, 200 nM Caffeine, and 100 nM tolbutamide) in a new 96-well plate as the initial donor sample (B-A). Samples were vortexed at 1000 rpm for 10 minutes, and 75 μL of transport buffer was added to the Transwell insert (apical compartment). Plates were incubated at 37° C. for 2 hours. […]
To determine the Lucifer Yellow leakage after 2 hour transport period, the stock solution of Lucifer yellow was prepared in DMSO and diluted with HBSS (10 mM HEPES, pH 7.4) to reach the final concentration of 100 μM. […] The Lucifer Yellow fluorescence (to monitor monolayer integrity) signal was measured in a fluorescence plate reader at 480 nm excitation and 530 nm emission.

[5] = test system: alanine-glyoxylate aminotransferase (AGXT) knockout mice; test: In vivo efficacy in Agxt−/− mouse model of primary hyperoxaluria 1 (urine oxalate and glycolate)
Description: The in-vivo activity of test compounds was evaluated using alanine-glyoxylate aminotransferase (AGXT) knockout mice from Jackson Laboratory (Bar Harbor, Me.), as reported by Martin-Higueras et al., Molecular Therapy, vol. 24 no. 4, 719-725, 2016. Ten to 15-week-old male AGXT knock-out mice (Agxt−/−) were used to assess the in-vivo activity of test compounds on urinary oxalate and glycolate.
Male Agxt−/− mice were housed under standard conditions (five animals per cage) and allowed free access to food and water. Upon study initiation, animals were treated with test compounds by oral gavage formulated in 20% (2-hydroxypropyl)-β-cyclodextrin (10 μL/g). […]
Urine oxalate was measured using a commercially available clinical oxalate oxidase assay (Trinity Biotech, Wicklow, Ireland) following the manufacturer's instructions.
Plasma and urine glycolate were determined by methods described in Dutta et al., “Inhibition of Glycolate Oxidase with Dicer-substrate siRNA Reduces Calcium Oxalate Deposition in a Mouse Model of Primary Hyperoxaluria Type 1.” Mol Ther., 24(4) 770-778 (2016) using liquid chromatography combined with mass spectrometry detection (LC/MS) on a triple-quadrupole instrument by electrospray ionization and multiple reaction monitoring. […] A two-step protein precipitation determined plasma glycolate. […]

[6] = biological target: glycolate oxidase (GOX) in HepaRG-CAR cells (Homo sapiens (Human), UniProt Q9UJM8); test: HepaRG-CAR cell-based assay for quantitation of glycolate oxidase inhibition (cellular glycolate flux, GC-MS)
Sequence of glycolate oxidase (GOX) in HepaRG-CAR cells (Q9UJM8 whole entry): as above

SMILES | AUC Fold over Ex. 1 [1] | compound remained intact [2] [%] | IC50 [3] [nM] | plasma stability half-life (compared with Example 1) [4] | Papp Efflux Ratio (Caco-2 cell monolayers) | inhibition of urine oxalate ([5]; compound 1 dosed at 10 and 30 mg/kg, vs vehicle-treated control) | urine glycolate change ([5]; compound 1 dosed twice daily at 10 and 30 mg/kg) | IC50 [6] [nM]
CC(C)CC#Cc1cccc(Oc2[nH]nnc2C(=O)O)c1 [Example 343, 5-(3-(4-Methylpent-1-ynyl)phenoxy)-1H-1,2,3-triazole-4-carboxylic Acid] | 4.3 | 100 | 10 | similarly long or longer half-lives | single digits |  |  | 
CS(=O)(=O)c1ccc(C#Cc2cccc(Oc3[nH]nnc3C(=O)O)c2)cc1 [Example 255, 5-(3-(2-(4-(Methylsulfonyl)phenyl)ethynyl)phenoxy)-1H-1,2,3-triazole-4-carboxylic Acid] | 0.1 | 100 | 8 | similarly long or longer half-lives |  |  |  | 
C#Cc1cccc(Oc2[nH]nnc2C(=O)O)c1 [Example 1, 5-(3-Ethynylphenoxy)-1H-1,2,3-triazole-4-carboxylic Acid] | 1.0 |  | 21 |  |  | about 30% | concomitant increase in urine glycolate | 2500
CS(=O)(=O)c1ccc(C#Cc2ccc(Oc3[nH]nnc3C(=O)O)cc2)cc1 [Example 190, 5-(4-(2-(4-(Methylsulfonyl)phenyl)ethynyl)phenoxy)-1H-1,2,3-triazole-4-carboxylic Acid] |  |  | 3 | similarly long or longer half-lives |  |  |  | 
O=C(O)c1nn[nH]c1Sc1cccc(C#CCC2CC2)c1 [Example 356, 5-(3-(3-Cyclopropylprop-1-ynyl)phenylthio)-1H-1,2,3-triazole-4-carboxylic Acid] | 7.4 |  | 6 |  | single digits |  |  | 
O=C(O)c1nn[nH]c1Oc1cccc(C#CCC2CC2)c1 [Example 302, 5-(3-(3-Cyclopropylprop-1-ynyl)phenoxy)-1H-1,2,3-triazole-4-carboxylic Acid] | 4.1 | 100 | 13 | similarly long or longer half-lives | single digits |  |  | 
